Laboratory results reported in patent publication US7229651B2, “Dietary supplements containing natural ingredients” (Melaleuca, Inc., priority 1998, dated 2007).

Legend:
[1] = test system: in vivo platelet activity (acute platelet thrombus formation); settings: cited from earlier work
[2] = test system: platelet activity; settings: aspirin, blood aggregometry test; cited from earlier work
[3] = test system: LDL cholesterol; experiment: Copper ion catalysed LDL cholesterol oxidation (conjugated dienes at 234 nm, lag time); type: biochemical, human
From the text: LDL cholesterol oxidation or protection therefrom can be determined by several methods. Kleinveld et al., Clin. Chem., 38(10):2066–2072 (1992) describes the methods for the LDL oxidation experiments described and used herein. A preferred way to practice the method encompasses extracting LDL cholesterol from whole blood samples collected from a subject using standard techniques. The extracted LDL cholesterol is divided into control and experimental samples. LDL oxidation is catalyzed by adding a copper ion solution to each LDL cholesterol sample. Copper ions are known to catalyze and enhance LDL cholesterol oxidation. […]
Copper ions accelerate the production of conjugated dienes in LDL cholesterol oxidation, which absorb light at 234 nm. Therefore, LDL cholesterol oxidation is monitored by following the increase in absorbance at 234 nm as a function of time as shown in FIG. 6. […]
As described above, LDL cholesterol oxidation is commonly measured by observing absorbance at 234 nm (Abs234nm) as a function of time while the LDL cholesterol is exposed to oxidative conditions. The antioxidant effectiveness of PROVEXCV™ and other substances was determined.
LDL cholesterol was prepared from human volunteer blood samples. […] To each sample a measured amount of copper ions was added.
After mixing, the Abs234nm of each solution was then monitored as a function of time. […]

Molecule	dogs with renewed CFR's on epinephrine infusion ([1]; after abolishment of CFR's with 5–10 mg/kg of aspirin)	effect on CFR's ([1]; aspirin, Folts model, literature)	dosage at which platelet activity is inhibited ([1]; aspirin, known value) [mg/kg]	reactivation of inhibited platelet activity on epinephrine ([1]; aspirin, epinephrine 0.2 μg/Kg/min intravenously)	decrease of platelet activity, collagen stimulated [2]	lag time before LDL oxidation begins vs native LDL ([3]; Vitamin E 5.3 mg/L, CuCl2 5 μmol/L, 30° C., FIG. 8)	time LDL cholesterol protected from oxidation (lag time) ([3]; vitamin E at the described concentration, copper ions)
CC(=O)Oc1ccccc1C(=O)O [aspirin]	50–60 % of dogs	eliminates CFR's	5	can be reactivated	30–40%		
vitamin E						delayed	about 95 minutes
